Columns and labels:
[1] = system: BALB/c 3T3 neo-only transfectants (18neo); experiment: 51Cr-release CTL assay with T1272-specific effectors on peptide-sensitized fibroblast targets; type: cell-based, BALB/c mice; conditions: for % specific 51Cr release, Immune spleen cells: 0.1 μM peptide on 18neo targets, effectors spleen cells of 10 μM T1272 peptide-pulsed spleen cell-immunized BALB/c mice restimulated with 0.1 μM T1272; for % specific 51Cr release, Immune spleen cells / % specific 51Cr release, CTL line: E/T 40:1; for % specific 51Cr release, CTL line: 1.0 μM peptide on 18neo targets, short-term T1272-specific BALB/c CTL line (3 weeks in culture); for peptide concentration able to sensitize targets for lysis: titrated in the killing assay, T1272 peptide-immune splenic CTL at 40:1 (FIG. 1C)
Procedure: CTL generation: BALB/c (H-2^d) mice were immunized intravenously with 20×10^6 spleen cells pulsed with various concentrations of T1272 peptide for two hours at 37° C. and irradiated at 2,000 rad (by the method of H. Takahashi, Y. Nakagawa, K. Yokomuro, & J. A. Berzofsky, submitted). One week later, immune spleen cells (3×10^6/ml) were restimulated for six days in vitro with various concentrations of T1272 peptide in 10% Rat-T Stim, without Con A (Collaboration Research Incorporated, Bedford, Mass.) in 24-well culture plates in complete T-cell medium (CTM)(14), a 1:1 mixture of RPMI 1640 and Eagle-Hanks amino acid medium containing 10% fetal bovine serum, 2 mM L-glutamine, penicillin (100 U/ ml), streptomycin (100 μg/ml), and 5×10^−5 M 2 mercaptoethanol.
CTL Assay. Cytolytic activity of the restimulated cells was measured as described (15) by using a six-hour assay with various ^51Cr-labeled targets. For testing the peptide specificity of CTL, effectors and ^51CR-labeled targets were mixed with various concentrations of peptide at the beginning of the assay. The percentage specific ^51CR release was calculated as 100(experimental release−spontaneous release)/(maximum release−spontaneous release). Maximum release was determined from supernatants of cells that were lysed by addition of 5% Triton X-100. Spontaneous release was determined from target cells incubated without added effector cells.
To more precisely identify the T-cell epitope recognized by T1272-specific BALB/c CTL, and to test the hypothesis that the response was specific for the neo-antigenic determinant created by the mutation, a series of peptides was synthesized and various concentrations of these peptides were individually added to effectors and ^51Cr-labeled fibroblast targets at the start of the assay culture. We measured the cytotoxic activity of two types of effector cells: spleen cells from mice immunized with peptide-pulsed cells stimulated once in vitro with 0.1 μM T1272 peptide (presumably polyclonal·effector populations), and a short-term CTL line (possibly an oligoclonal population, although only three weeks in culture).
CTL effectos were spleen cells derived from die 10 μM T1272 peptide-pulsed spleen cell-immunized BALB/c mice (restimulated 6 days with 0.1 μM T1272 peptide) (left) or a short-term T1272-specific BALB/c CTL line (after 3 weeks in culture) (right). BALB/c 3T3 neo-only transfectants (18neo) (H-2^d) plus 0.1 μM synthetic peptide were used as targets with BALB/c spleen effectors or with 1.0 μM peptide for the CTL line. […] The effector/target cell ratio was 40:1. The arrow and bold-face amino acids indicate the site of the 135 Cys to Tyr mutation. Underlined amino acids correspond to human p53 residues which differ from the mouse p53.

[2] = system: HIV-1-IIIB gp160-gene transfected BALB/c.3T3 fibroblasts; experiment: CTL induced by i.v. immunization with peptide-pulsed irradiated cells, 51Cr release on gp160 transfectants; type: in vivo, BALB/c mice; conditions: cells pulsed with the 10-mer before immunization; without adding IL-2 exogenously (FIG. 9)
Procedure: CTL Generation. Immunizations were carried out either subcutaneously (s.c.) in the base of the tail, or intraperitoneally (i.p.), or intravenously (i.v.) from the tail vein with 27 G needle. Several weeks later, immune spleen cells (5×10^6/ml in 24-well culture plates in complete T-cell medium (a 1:1 mixture of RPMI 1640 and EHAA medium containing 10% FCS, 2 mM L-glutamine, 100 U/ml penicillin, 100 μg/ml streptomycin and 5×10^−5M 2-mercaptoethanol)) were restimulated for 6 days in vitro with mitomycin-C treated HIV-1-IIIB envelope gp160 gene transfected histocompatible BALB/c.3T3 fibroblasts alone or in the presence of 10% Rat Con-A supernatant-containing medium (Rat T-cell Monoclone) (Collaborative Research, Inc., Bedford, Mass.) or 10 U/ml of recombinant mouse IL-2 (rIL-2) (Genzyme, Boston, Mass.).
CTL assay. After culture for 6 days, cytolytic activity of the restimulated cells was measured as previously described (21) using a 6 hr assay with various ^51Cr-labelled targets, as indicated in the figure legends. […] The percent specific ^51Cr release was calculated as 100 (experimental release−spontaneous release)/(maximum release−spontaneous release). Maximum release was determined from supernatants of cells that were lysed by addition of 5% Triton-X 100. Spontaneous release was determined from target cells incubated without added effector cells. […]

[3] = system: L-cell (H-2^k) transfectants expressing D^d, L^d and K^d; experiment: MHC-restriction mapping of T1272 peptide recognition by CTL; type: cell-based, mouse; conditions: 0.1 μM peptide T1272, K^d L-cell transfectants (FIG. 2B)
Procedure: MHC-restriction mapping. L-cell (H-2^k) transfectants expressing D^d (T4.8.3 (18), L^d (T1.1.1 (19) and K^d (B4III-2(20)) were used as targets, in the presence or absence of 0.1 μM peptide T1272. neo gene transfected BALB/c 3T3 fibroblasts (18neo) (H-2^d) (21) were used as a positive control, and neo gene-transfected L-cells L28 (H-2^k) (21) were used as a negative target control, also in the presence or absence of peptide.
The BALB/c 3T3 (18neo) fibroblasts (H-2^d) used as targets in these experiments express class I but not class II MHC gene products.
In this experiment, 2×10^3 51Cr-labeled targets were cultured with T1272-immune splenic effector cells (a short-term line stimulated twice with 0.1 μM peptide) at several effector/target cell ratios in the presence or absence of 0.1 μM peptide T1272. L-cell (H-2^k) transfectants expressing D^d (T4.8.3 (18)), L^d (T1.1.1 (19)) and K^d (B4III-2 (20)) were used as targets. neo gene transfected BALB/c 3T3 fibroblasts (isneo) (H-2^d) (21) were used as a positive control, and neo gene-transfected L-cells L28 (H-2^k) (21) were used as a negative target control. Spontaneous release was less than 20% of maximal release. Although background without peptide varied among the different transfectants from experiment to experiment, T1272 peptide-specific lysis was consistently seen only in the cells expressing K^d, in five different experiments. […]

ALNKMFYQLAKT [Peptide T12]
% specific 51Cr release, Immune spleen cells [1]: 9.7%
% specific 51Cr release, CTL line [1]: −9.1%

FYQLAKTCPV [Peptide V10]
% specific 51Cr release, Immune spleen cells [1]: 62.7%
% specific 51Cr release, CTL line [1]: 53.7%

KMFYQLAKTCPVQL [Peptide L14, C-terminal 14 residues of the T1272 peptide]
% specific 51Cr release, Immune spleen cells [1]: 22.2%
% specific 51Cr release, CTL line [1]: 22.1%

RGPGRAFVTI [Peptide 18IIIB-I-10]
priming of CD8+ CTL by minimal peptide [2]: can prime CD8^+ CTL almost as well as 18IIIB

RIQRGPGRAFVTIGK [Peptide P18IIIB]
peptide concentration able to sensitize targets for lysis [1]: not recognized at any concentration

TYSPALNKMFYQL [Peptide L13]
% specific 51Cr release, Immune spleen cells [1]: 14.7%
% specific 51Cr release, CTL line [1]: −8.9%

TYSPALNKMFYQLAKTCPVQL [Peptide T1272]
% specific 51Cr release, Immune spleen cells [1]: 35.4%
% specific 51Cr release, CTL line [1]: 24.7%
peptide concentration able to sensitize targets for lysis [1]: < 0.1 µM
class I MHC restriction of peptide recognition by CTL [3]: restricted by the class I molecule K^d

Reference: patent US20030086911A1, “Methods and compositions for the stimulation of human immunodeficiency virus-specific cytotoxic T lymphocytes employing autologous antigen-peripheral blood mononuclear cells” (Department of Health and Human Services, priority 1993, published 2003)
